Legend:
[1] = target: Glutamate receptor ionotropic, NMDA 2C (Rattus norvegicus, UniProt Q00961); test: Binding affinity of compound was determined against N-methyl-D-aspartate glutamate receptor, using radioligand [3H]- CGP-39653
[2] = target: T1, Glutamate receptor ionotropic, kainate 3 (Rattus norvegicus, UniProt P42264); test: Binding affinity of compound was determined against KA receptor, using radioligand [3H]- KA
[3] = target: T2, Metabotropic glutamate receptor 1 (Homo sapiens, UniProt Q13255); test: Antagonist activity of compound at Metabotropic glutamate receptor 1 alpha was determined; assay type: functional
Glutamate receptor 1 [4] = target: Glutamate receptor 1 (Rattus norvegicus, UniProt P19490); test: Binding affinity of compound was determined against Ionotropic glutamate receptor AMPA receptor, using radioligand [3H]- AMPA
[5] = target: Glutamate receptor ionotropic, kainate 1 (Homo sapiens, UniProt P39086); test: Binding affinity of compound was determined towards cloned Ionotropic glutamate receptor ionotropic kainate 1 (GluR5) expressed in Sf 9 insect cells
Glutamate receptor 2 [6] = target: Glutamate receptor 2 (Rattus norvegicus, UniProt P19491); test: Effective concentration of compound was determined for electrophysiological properties on Ionotropic glutamate receptor AMPA 2 (GluR2) using […] Xenopus laevis oocytes; assay type: functional, cell-based, Oocyte
Glutamate receptor 4 [7] = target: Glutamate receptor 4 (Rattus norvegicus, UniProt P19493); test: Effective concentration of compound was determined for electrophysiological properties on Ionotropic glutamate receptor AMPA 4 (GluR4) using […] Xenopus laevis oocytes; assay type: functional, cell-based, Oocyte
Rattus norvegicus = organism: Rattus norvegicus; test: Effective concentration of compound was determined for electrophysiological properties on iGluRs using rat cortical slice model in Xenopus laevis oocytes
Glutamate receptor 3 [8] = target: Glutamate receptor 3 (Rattus norvegicus, UniProt P19492); test: Effective concentration of compound was determined for electrophysiological properties on Ionotropic glutamate receptor AMPA 3 (GluR3) using […] Xenopus laevis oocytes; assay type: functional, cell-based, Oocyte
[9] = Neurotoxicity was determined in cultured mouse cortical neurons; assay type: toxicity
Glutamate receptor 4 [10] = target: Glutamate receptor 4 (Homo sapiens, UniProt P48058); test: Binding affinity of compound was determined towards cloned Ionotropic glutamate receptor AMPA 4 (GluR4) expressed in Sf 9 insect cells
Glutamate receptor 2 [11] = target: Glutamate receptor 2 (Homo sapiens, UniProt P42262); test: biochemical
Glutamate receptor 3 [12] = target: Glutamate receptor 3 (Homo sapiens, UniProt P42263); test: Binding affinity of compound was determined towards cloned Ionotropic glutamate receptor AMPA 3 (GluR3) expressed in Sf 9 insect cells
Glutamate receptor 1 [13] = target: Glutamate receptor 1 (Homo sapiens, UniProt P42261); test: Binding affinity of compound was determined towards cloned Ionotropic glutamate receptor AMPA 1 (GluR1) expressed in Sf 9 insect cells
[14] = target: Glutamate receptor ionotropic, kainate 2 (Homo sapiens, UniProt Q13002); test: Binding affinity of compound was determined towards cloned Ionotropic glutamate receptor ionotropic kainate 6 (GluR6) expressed in Sf 9 insect cells
Glutamate receptor 1 [15] = target: Glutamate receptor 1 (Mus musculus, UniProt P23818); test: Effective concentration of compound was determined for electrophysiological properties on […] glutamate receptor 1 using […] Xenopus laevis oocytes; assay type: functional, cell-based, Oocyte
[16] = target: T1, Glutamate receptor ionotropic, kainate 3; test: Binding affinity of compound was determined against Ionotropic glutamate receptor ionotropic kainate, using radioligand [3H]- KA
[17] = target: T2, Metabotropic glutamate receptor 1; test: Antagonist activity of compound at Metabotropic glutamate receptor 1 was determined; assay type: functional

T1 sequence (P42264 whole entry): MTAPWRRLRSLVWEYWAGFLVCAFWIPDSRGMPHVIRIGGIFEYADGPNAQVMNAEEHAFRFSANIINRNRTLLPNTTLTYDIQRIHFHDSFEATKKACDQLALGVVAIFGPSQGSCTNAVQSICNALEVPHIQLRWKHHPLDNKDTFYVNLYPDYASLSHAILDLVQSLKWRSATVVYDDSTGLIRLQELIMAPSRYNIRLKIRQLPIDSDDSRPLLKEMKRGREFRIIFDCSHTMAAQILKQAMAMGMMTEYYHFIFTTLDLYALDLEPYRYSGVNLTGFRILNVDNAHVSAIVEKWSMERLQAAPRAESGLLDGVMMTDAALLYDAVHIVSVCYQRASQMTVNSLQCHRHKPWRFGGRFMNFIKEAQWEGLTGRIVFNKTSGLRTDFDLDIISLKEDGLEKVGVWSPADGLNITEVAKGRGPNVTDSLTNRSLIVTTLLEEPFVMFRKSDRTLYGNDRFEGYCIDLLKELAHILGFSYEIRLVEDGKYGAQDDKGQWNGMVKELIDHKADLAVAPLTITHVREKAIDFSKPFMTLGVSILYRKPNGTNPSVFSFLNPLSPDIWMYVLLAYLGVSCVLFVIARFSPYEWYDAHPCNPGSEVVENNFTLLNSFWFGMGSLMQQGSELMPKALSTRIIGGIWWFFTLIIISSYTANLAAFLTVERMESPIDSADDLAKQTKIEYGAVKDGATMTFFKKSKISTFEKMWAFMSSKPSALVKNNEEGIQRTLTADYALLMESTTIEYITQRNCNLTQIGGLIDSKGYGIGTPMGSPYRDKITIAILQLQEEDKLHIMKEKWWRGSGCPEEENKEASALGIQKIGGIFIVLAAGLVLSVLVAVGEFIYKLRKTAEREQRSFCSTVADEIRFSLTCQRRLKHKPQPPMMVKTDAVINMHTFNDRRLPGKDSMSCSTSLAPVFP
Sequence of Glutamate receptor 3 (Homo sapiens, UniProt P42263) (P42263 whole entry): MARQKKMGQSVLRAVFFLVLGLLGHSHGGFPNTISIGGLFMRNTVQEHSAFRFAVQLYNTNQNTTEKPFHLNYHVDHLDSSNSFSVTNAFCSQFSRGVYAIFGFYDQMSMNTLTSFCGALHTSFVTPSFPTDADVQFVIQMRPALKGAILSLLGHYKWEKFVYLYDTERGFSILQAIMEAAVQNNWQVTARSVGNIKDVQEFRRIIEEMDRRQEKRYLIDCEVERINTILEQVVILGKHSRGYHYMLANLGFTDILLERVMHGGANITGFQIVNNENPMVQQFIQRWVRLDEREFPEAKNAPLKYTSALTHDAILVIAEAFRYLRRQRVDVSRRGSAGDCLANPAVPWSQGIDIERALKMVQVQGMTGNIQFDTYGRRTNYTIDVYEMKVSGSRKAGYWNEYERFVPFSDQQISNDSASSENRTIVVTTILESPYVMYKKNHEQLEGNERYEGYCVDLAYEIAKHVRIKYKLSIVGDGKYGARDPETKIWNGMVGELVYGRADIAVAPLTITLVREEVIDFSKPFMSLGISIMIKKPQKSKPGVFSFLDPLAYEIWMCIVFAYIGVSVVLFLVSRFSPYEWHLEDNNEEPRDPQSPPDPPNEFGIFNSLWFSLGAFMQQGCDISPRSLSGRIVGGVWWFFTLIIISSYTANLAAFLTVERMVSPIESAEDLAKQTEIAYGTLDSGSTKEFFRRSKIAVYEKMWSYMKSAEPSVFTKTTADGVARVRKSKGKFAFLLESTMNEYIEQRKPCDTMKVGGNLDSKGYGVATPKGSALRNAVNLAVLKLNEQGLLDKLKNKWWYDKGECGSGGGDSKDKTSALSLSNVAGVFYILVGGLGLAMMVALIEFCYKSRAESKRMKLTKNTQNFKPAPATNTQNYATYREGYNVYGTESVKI
Sequence of Glutamate receptor 4 (Homo sapiens, UniProt P48058) (P48058 whole entry): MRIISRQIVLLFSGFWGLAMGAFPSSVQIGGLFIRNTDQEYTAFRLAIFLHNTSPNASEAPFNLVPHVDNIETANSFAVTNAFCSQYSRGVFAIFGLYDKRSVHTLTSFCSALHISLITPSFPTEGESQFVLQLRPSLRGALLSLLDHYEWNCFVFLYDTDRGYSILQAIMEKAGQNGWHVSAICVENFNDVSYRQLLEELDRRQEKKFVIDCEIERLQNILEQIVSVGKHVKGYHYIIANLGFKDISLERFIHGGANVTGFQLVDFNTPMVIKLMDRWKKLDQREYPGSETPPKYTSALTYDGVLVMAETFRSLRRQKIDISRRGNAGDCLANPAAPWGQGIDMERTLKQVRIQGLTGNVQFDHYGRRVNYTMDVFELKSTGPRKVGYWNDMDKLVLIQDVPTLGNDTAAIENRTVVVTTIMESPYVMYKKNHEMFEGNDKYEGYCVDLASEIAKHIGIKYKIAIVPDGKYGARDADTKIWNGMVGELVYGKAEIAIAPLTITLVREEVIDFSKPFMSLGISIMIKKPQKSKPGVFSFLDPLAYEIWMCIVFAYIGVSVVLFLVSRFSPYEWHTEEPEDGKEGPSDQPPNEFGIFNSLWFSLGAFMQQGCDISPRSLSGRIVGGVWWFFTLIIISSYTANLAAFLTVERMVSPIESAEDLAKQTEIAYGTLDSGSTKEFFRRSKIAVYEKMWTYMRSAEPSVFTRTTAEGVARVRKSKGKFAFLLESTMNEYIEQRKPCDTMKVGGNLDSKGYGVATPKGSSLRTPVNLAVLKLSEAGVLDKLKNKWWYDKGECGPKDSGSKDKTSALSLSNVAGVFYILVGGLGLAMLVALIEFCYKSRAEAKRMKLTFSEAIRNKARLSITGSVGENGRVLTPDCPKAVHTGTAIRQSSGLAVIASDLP
Sequence of Glutamate receptor ionotropic, kainate 1 (P39086 whole entry): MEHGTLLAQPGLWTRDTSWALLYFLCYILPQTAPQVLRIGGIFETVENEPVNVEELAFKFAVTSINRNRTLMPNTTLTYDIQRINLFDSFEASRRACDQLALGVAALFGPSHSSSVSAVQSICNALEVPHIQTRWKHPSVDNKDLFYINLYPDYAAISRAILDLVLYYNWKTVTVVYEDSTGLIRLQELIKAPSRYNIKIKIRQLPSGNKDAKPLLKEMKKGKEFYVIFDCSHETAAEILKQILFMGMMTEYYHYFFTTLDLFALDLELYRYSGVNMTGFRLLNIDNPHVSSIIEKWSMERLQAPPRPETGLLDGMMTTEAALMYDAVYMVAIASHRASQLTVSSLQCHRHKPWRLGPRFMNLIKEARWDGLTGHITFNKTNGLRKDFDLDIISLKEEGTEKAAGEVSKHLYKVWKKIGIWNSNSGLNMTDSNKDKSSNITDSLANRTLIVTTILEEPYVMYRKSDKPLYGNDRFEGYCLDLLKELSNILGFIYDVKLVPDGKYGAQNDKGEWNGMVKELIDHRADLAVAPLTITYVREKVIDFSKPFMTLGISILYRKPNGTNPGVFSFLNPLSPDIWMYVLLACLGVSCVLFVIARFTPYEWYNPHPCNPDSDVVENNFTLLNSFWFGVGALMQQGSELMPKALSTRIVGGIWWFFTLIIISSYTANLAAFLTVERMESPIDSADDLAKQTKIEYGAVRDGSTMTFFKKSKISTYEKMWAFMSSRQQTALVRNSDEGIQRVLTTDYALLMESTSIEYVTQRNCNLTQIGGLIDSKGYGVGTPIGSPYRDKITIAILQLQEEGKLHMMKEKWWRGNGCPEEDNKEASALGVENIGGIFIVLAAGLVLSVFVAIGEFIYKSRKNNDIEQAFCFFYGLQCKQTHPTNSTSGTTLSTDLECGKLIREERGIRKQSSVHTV
Sequence of Glutamate receptor 1 (Homo sapiens, UniProt P42261) (P42261 whole entry): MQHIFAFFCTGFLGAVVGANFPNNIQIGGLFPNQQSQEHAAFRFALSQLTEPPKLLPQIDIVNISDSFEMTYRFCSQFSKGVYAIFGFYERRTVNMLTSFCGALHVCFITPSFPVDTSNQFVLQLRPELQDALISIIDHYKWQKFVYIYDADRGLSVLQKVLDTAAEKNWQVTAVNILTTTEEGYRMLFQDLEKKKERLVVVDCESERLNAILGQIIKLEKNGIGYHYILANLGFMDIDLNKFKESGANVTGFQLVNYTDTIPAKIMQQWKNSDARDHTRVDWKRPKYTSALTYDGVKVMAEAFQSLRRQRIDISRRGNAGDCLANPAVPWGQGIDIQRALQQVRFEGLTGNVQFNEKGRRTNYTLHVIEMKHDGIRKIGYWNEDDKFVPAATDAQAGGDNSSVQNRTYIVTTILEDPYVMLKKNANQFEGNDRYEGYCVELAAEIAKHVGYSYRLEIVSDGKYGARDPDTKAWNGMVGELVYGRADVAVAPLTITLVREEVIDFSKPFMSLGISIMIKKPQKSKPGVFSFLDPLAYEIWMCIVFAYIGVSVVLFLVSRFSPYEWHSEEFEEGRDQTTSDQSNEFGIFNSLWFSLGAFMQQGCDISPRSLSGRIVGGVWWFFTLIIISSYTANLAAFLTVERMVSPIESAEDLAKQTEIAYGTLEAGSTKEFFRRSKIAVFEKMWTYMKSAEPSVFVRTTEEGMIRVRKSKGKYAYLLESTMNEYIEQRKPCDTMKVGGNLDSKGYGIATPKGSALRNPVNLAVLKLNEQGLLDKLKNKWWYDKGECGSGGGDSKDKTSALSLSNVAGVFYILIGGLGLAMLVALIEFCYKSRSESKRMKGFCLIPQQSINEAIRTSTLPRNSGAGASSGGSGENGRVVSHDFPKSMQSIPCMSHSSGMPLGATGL

NC(Cc1onc(O)c1Cl)C(=O)O (configuration not stated)
Ki [1]: 18 µM | IC50 [2]: > 100 µM | Ki [3]: 860 µM | IC50 (Glutamate receptor 1 [4]): 0.22 µM | Ki [5]: 6.8 µM | EC50 (Glutamate receptor 2 [6]): 1.7 µM | EC50 (Glutamate receptor 4 [7]): 1300 µM | EC50 (Rattus norvegicus): 39 µM | EC50 (Glutamate receptor 3 [8]): 2700 µM | EC50 [9]: 27 µM | Ki (Glutamate receptor 4 [10]): 11.9 µM | Ki (Glutamate receptor 2 [11]): 0.37 µM | Ki (Glutamate receptor 3 [12]): 27.5 µM | Ki (Glutamate receptor 1 [13]): 0.13 µM | Ki [14]: > 100 µM

NC(Cc1onc(O)c1Br)C(=O)O (configuration not stated)
Ki [1]: 34 µM | Ki [5]: 4.8 µM | EC50 (Glutamate receptor 1 [15]): 14 µM | IC50 [16]: > 100 µM | Ki [17]: 329 µM | EC50 [9]: 16 µM | Ki (Glutamate receptor 4 [10]): 11.7 µM | Ki (Glutamate receptor 2 [11]): 0.25 µM | Ki (Glutamate receptor 3 [12]): 12 µM | Ki (Glutamate receptor 1 [13]): 0.17 µM | Ki [14]: > 100 µM

Cc1onc(O)c1CC(N)C(=O)O [(R,S)-AMPA]
EC50 [9]: 13 µM

— ChEMBL document CHEMBL1144891, “Design, synthesis, and pharmacology of a highly subtype-selective GluR1/2 agonist, (RS)-2-amino-3-(4-chloro-3-hydroxy-5-isoxazolyl)propionic acid (Cl-HIBO)” (J Med Chem, 2003)
